In paper PMC4515242, “ESR and X-ray Structure Investigations on the Binding and Mechanism of Inhibition of the Native State of Myeloperoxidase with Low Molecular Weight Fragments” (Applied Magnetic Resonance, 2015):

Tests used:
hMPO = molecular target: T1, hMPO (Homo sapiens, UniProt P05164); assay: Alpha screen assay: inhibition of MPO-initiated nitration of the Apo-A1 peptide ([…]); format: biochemical; details: MPO 11.8 nM, pH 7.4, 45 min RT
T1 construct: purchased Biodesign A31804H
T1 sequence (P05164 49-745): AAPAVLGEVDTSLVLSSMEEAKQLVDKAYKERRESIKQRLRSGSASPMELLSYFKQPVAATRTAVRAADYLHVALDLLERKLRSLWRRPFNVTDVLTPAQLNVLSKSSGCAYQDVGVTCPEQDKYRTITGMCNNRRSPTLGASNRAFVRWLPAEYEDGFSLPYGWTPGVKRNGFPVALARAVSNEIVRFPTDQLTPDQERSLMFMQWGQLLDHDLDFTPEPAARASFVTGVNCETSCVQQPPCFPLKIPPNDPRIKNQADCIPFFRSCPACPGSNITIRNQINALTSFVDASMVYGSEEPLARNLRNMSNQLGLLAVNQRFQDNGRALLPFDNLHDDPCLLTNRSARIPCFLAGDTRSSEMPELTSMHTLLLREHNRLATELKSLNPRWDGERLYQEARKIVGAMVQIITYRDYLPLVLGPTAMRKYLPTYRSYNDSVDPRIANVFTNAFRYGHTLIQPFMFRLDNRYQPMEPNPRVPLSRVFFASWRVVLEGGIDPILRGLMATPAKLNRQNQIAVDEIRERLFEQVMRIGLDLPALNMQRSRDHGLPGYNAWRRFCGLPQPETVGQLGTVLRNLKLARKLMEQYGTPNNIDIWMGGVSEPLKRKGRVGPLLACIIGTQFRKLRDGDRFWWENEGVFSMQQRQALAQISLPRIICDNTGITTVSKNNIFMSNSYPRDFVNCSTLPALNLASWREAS
Experimental: In a typical experiment, MPO (11.8 nM final concentration) in 20 mM phosphate buffer pH 7.4, 10 % glycerol and 0.005 % gelatin (PB) is added to each well of a multi-well plate containing 20 μl PB ± compound (final concentration of DMSO = 0.9 %). The reaction is started by the addition of 20 μl PB containing 1.5 μM ApoAI peptide substrate, 300 μM diethylenetriaminepentaacetic acid (DTPA), 300 μM sodium nitrite, and 30 μM H2O2. The total reaction volume is 60 μl. The plates are incubated with agitation for 45 min at RT. The reaction is terminated with the addition of 20 μl of a stop solution containing 11.2 nM rabbit anti-nitrotyrosine antibody (final conc. of 2.8 nM), 100 μg/ml streptavidin donor beads, and 100 μg/ml protein A acceptor beads (final concentration of […]), FBS (1.6 % final concentration) in Superblock buffer. The plates are sealed, incubated in the dark for 1 h, and read on a Packard Fusion alpha plate reader.
Through a chloride independent pathway, MPO catalyzes the one electron oxidation of nitrite ions to nitrogen dioxide radicals which then […] protein amino acids like Tyrosine. We used the Apo-A1 peptide substrate ([…]) to follow the nitration of the Tyrosine (indicated by Y in the scheme below): MPO+H2O2→Compound INO2-+Compound I→NO2·+Compound II [drawing 1] Our initial experiments focused on identifying inhibitors that bind to the heme to inhibit the above catalytic action. A representative set of inhibitors is collected in Fig. 1a (strong binders, vide infra) and b (non binders, vide infra).

[1] = molecular target: T2, native state (Fe3+) of hMPO (Homo sapiens, UniProt P05164); assay: Low temperature ESR binding assay (binding-induced g shift, Rrelative); details: for ESR Rrelative: Rrelative = (Rbound - Rnative)/Rnative x 100, inhibitor:MPO 40:1, pH 6, 6 % DMSO, 4-7 K; for Δg: absolute difference between g X and g Y of the bound complex; for ESR Binding: class by Rrelative, inhibitor:MPO 40:1; for g X / g Y: electronic g value of the bound complex, X-band ESR, 5 K
T2 construct: purchased Athens Research and Technology
T2 sequence (P05164 49-745): T1 sequence (P05164 49-745)
Experimental: After 5-min. incubation at room temperature, the entire reaction mixture (0.235 mL) was transferred to the ESR quartz tubes. To avoid the quartz tubes breaking during the rapid freezing cycles, the ESR tubes were initially frozen in a 1:1 Isopentane-Cyclohexane mixture cooled with dry ice powder and then transferred to a liquid nitrogen Dewar to be queued up for ESR measurements. The reaction mixture contained a final concentration of 6 % DMSO. ESR spectra were recorded on a Varian E-12, X-band spectrometer equipped with an Air Products liquid helium cryostat.
The experimental g values correspond to the spin Hamiltonian pertinent to the high-spin ion (S = 5/2).1 H=DSZ2-1/3SS+1+E/DSX2-SY2+βgeS.Be where D and E are the eigen values of the axial and rhombic field components, i.e., the symmetry of the ligand (inhibitors approaching heme in this case). […] When the heme lodges inside the protein, the protein side chain amino acid (histidine) approaches the heme vicinity and either binds (axially) directly to the iron in the heme pocket. […] Thus, the fifth ligand leads to lower (rhombic) symmetries causing the signal at g ~ 6 to split. This non-tetragonal splitting of the heme is quantitated by the relationship,2 E/D=Δg/48 where ∆g represents the absolute difference between the gX and gY components. Alternatively, making use of the fact that E/D maximum value = 1/3, one can simplify the above expression as a percentage of rhombicity, R:3 R=Δg/16×100%. […] To rank-order molecules in terms of their ability to distort the heme pocket/plane environment, we used a ratio of total distortion in the bound complex w.r.t. distortion seen in the native unbound enzyme:4 Rrelative=Rbound-Rnative/Rnative×100.
From the relative rhombicities of the bound and unbound complex, a measure of the strength of binding could be derived. […] For the ease of classification, we have empirically defined those with 5 ≤ Rrelative ≥ 2 as weak binding; 15 ≥ Rrelative ≥ 10 as moderate binding; and 25 ≥ Rrelative ≥ 15 as strong binding (Table 2).

Human Myeloperoxidase = molecular target: T3, Human Myeloperoxidase (Homo sapiens, UniProt P05164); assay: X-ray co-crystal growth by soaking MPO crystals with inhibitor; details: crystals soaked with 50 mM inhibitor
T3 construct: purchased Lee Biosciences 426-10
T3 sequence (P05164 49-745): T1 sequence (P05164 49-745)
Experimental: Human Myeloperoxidase and co-crystals of MPO were crystallized and analyzed using methods similar to those described by Davey and Fenna. Briefly, hanging drops of 25 mg/mL MPO, 25 mM sodium acetate pH 5.0, 50 mM NaCl, 50 mM ammonium sulfate, 2 mM calcium chloride, and 3-10 % polyethylene glycol 8000 were set up at 21 °C over reservoir solutions containing 300 mM sodium chloride. Crystals of the space group P21 and having two MPO subunits per asymmetric unit grew with the aid of micro-seeding as very thin plates having a brownish orange tinge. Crystals were soaked with inhibitor compounds at a concentration of 50 mM, in a stabilizing buffer containing 18 % polyethylene glycol 8000, 56 mM ammonium sulfate, 2.2 mM calcium acetate, and 56 mM HEPES pH 7.0. Co-crystals were cryo-protected in a stabilizing buffer containing 22.2 % methylpentanediol prior to flash cooling in liquid nitrogen.
Diffraction data were collected at 100 K using Synchrotron beam line 31ID at the Advanced Photon Source (Argonne National Laboratory) and were integrated using MOSFLM v.6.2.6 [18]. […] Inhibitor binding to the MPO heme group was indicated by appropriately shaped peaks in the Fo–Fc electron density maps. The inhibitor was included in the model, and iterative cycles of manual model building with COOT [20] and restrained refinement with REFMAC v5.2.0019 [21] were used to complete the overall structure. Figures of the crystal structure were generated using PYMOL (www.pymol.org). […] The higher B-factors for the inhibitor molecules could be attributed to inhibitor occupancies of less than 1.0 or to higher degrees of thermal motion associated with the inhibitors. Lower than expected electron density peak heights were also observed for the Cl atom in the inhibitors, which could be due to the radiation damage to this X-Ray sensitive group.

[2] = ABTS radical cation decolorization assay to measure the antioxidant capacity; details: % inhibition at 20 uM single dose, read at 734 nm after 30 min
Experimental: The assay was modeled after the published procedure. Briefly, ABTS radical cation was prepared by adding 100 μl of 70 mM K2S2O8 to 10 ml ABTS, followed by vortexing and incubating at 37 °C water bath for 2 h. […] Trolox standards are dissolved in water. The reaction is started by adding the ABTS radical cation solution to the MPO inhibitors or Trolox (final concentration 20 μM). The plate is gently shaken for 1 min and then set on a bench top at room temperature for 30 min.

| IC50 (hMPO) [µM] | ESR Rrelative [1] | Δg [1] | ESR Binding [1] | g X [1] | g Y [1] | X ray Cocrystal result (Human Myeloperoxidase) | Compound | % Anti oxidant potential [2] [%] |
| --- | --- | --- | --- | --- | --- | --- | --- | --- |
| 160 | 2.4 | 1.875 | Weak (5 ≤ Rrelative ≥ 2 as weak binding) | 6.789 | 4.914 | No | O=C(O)c1n[nH]c2ccccc12 [LSN23500] | 0 |
| 0.219 | 0.2 | – | No | – | – | No | O=C1CC(c2ccc(Cl)cc2)=NN1 [LSN34893] | 53.4 |
| 0.667 | 0 | – | No | – | – | No | NC(=O)c1n[nH]cc1O [LSN104607] | 1.56 |
| 3.99 | 0 | – | No | – | – | No | S=c1[nH]nc(-c2ccncc2)o1 [LSN19450] | 85.8 |
| 333 | 0.2 | – | No | – | – | No | Oc1nnc(-c2ccccc2)s1 [LSN227931] | 0 |
| 0.396 | 0.2 | – | No | – | – | No | Oc1n[nH]c2c1CCC2 [LSN386639] | 38.2 |
| 0.406 | 0.2 | – | No | – | – | No | Cc1cc(O)nc2[nH]nc(O)c12 [LSN66421] | 10.4 |
| 0.168 | 0.3 | – | No | – | – | No | Cc1cc(C)c2c(O)n[nH]c2n1 [LSN42503] | 82.5 |
| 0.698 | 3.3 | – | Weak (5 ≤ Rrelative ≥ 2 as weak binding) | – | – | No | Cc1c(N)n[nH]c1-c1ccccc1 [LSN27223] | 32.7 |

| Compound | IC50 (hMPO) [µM] | ESR Rrelative [1] | Δg [1] | ESR Binding [1] | g X [1] | g Y [1] | X ray Cocrystal result (Human Myeloperoxidase) | % Anti oxidant potential [2] [%] |
| --- | --- | --- | --- | --- | --- | --- | --- | --- |
| Fc1ccccc1-c1n[nH]c(=S)o1 [LSN2303506] | 27.9 | 21.7 | 2.1759 | Strong (25 ≥ Rrelative ≥ 15 as strong binding) | 6.9749 | 4.799 | Yes | 97.7 |
| Cc1cc(C(F)(F)F)c(C#N)c(=O)[nH]1 [LSN131429] | 138 | -28.6 | 1.344 | Strong (25 ≥ Rrelative ≥ 15 as strong binding) | 6.559 | 5.215 | Yes | 9 |
| O=[N+]([O-])c1c(O)ncnc1O [LSN106019] | 538 | 29.2 | 2.31 | Strong (25 ≥ Rrelative ≥ 15 as strong binding) | 7.023 | 4.713 | Yes | 0 |
| Sc1nnc(-c2cccnc2)o1 [LSN811183] | 73 | 16.5 | 2.115 | Strong (25 ≥ Rrelative ≥ 15 as strong binding) | 6.924 | 4.809 | Yes | 95.9 |
| O=C(NO)c1ccccc1O [LSN13243] | 5.9 | 14.7 | – | Moderate (15 ≥ Rrelative ≥ 10 as moderate binding) | – | – | Yes | 74.9 |
